The record followed here is patent publication US10144758B2, “Deuterated bile acids” (Metselex, Inc., priority 2013, dated 2018).

Experiment [1] deals with primary rat hepatocytes. Briefly: DCA-induced caspase-3/7 activity (ApoTox-Glo Triplex). The format is cell-based. Particulars: 50 and 100 μM DCA; pretreatment; FIG. 7B. On the procedure: (§1) Primary rat hepatocytes were isolated from male rats (100-150 grams) by collagenase perfusion (as described by Solá S, et al., 2003, Journal of Biological Chemistry 278: 48831-48838)). Briefly, rats were anesthetized with phenobarbital sodium (100 mg/kg body weight) injected into the peritoneal cavity. After administration of heparin (200 units/kg body weight) in the tail vein, the animal's abdomen was opened and the portal vein exposed and cannulated. The liver was then perfused at 37° C. in situ with a calcium-free Hanks' Balanced Salt Solution (HBSS) for about 10 minutes, and then with 0.05% collagenase type IV in calcium-present HBSS for another 10 minutes. […] Cell viability was determined by trypan blue exclusion and was typically 80-85%. […]
(§2) The ApoTox-Glo™ Triplex Assay (Promega Corp., Madison, Wis., USA) was used to evaluate cell viability, cytotoxicity and caspase-3/7 activity, according to the manufacturer's protocol, using a GloMax+ Multi Detection System (Promega Corp.). General cell death was also evaluated using the lactate dehydrogenase (LDH) Cytotoxicity Detection Kit^PLUS (Roche Diagnostics GmbH, Mannheim, Germany), following the manufacturer's instructions. […]

Experiment [2] has as its system primary rat hepatocytes. Kind of experiment: TGF-β1-induced cytotoxicity, LDH release. The format is cell-based. Particulars: 1 nM TGF-β1 36 hours; 100 μM compound; FIG. 8A. On the procedure: as §1, §2

In the case of “7,8-[^2H]-3α,7α-dihydroxy-5β-cholan-24-oic acid/7-[^2H]-3α,7α-dihydroxy-5β-cholan-24-oic acid [Compound 5]”, the “inhibition of caspase activity” value with primary rat hepatocytes [1] is “more effective than UDCA”. Also, in the experiment on primary rat hepatocytes [2], the “more effective than UDCA at inhibiting TGF-β1-induced LDH release” value is “about 10%”.
